Test results from paper PMC8753592, “Long-acting capsid inhibitor protects macaques from repeat SHIV challenges” (Nature, 2021).
“And” between values parts separate entries of the source, which are not always exact repeats. Equal entries are not always repeated.

Assays:
[1] = in vitro; conditions: rhesus
Experimental: After a 24-h equilibration period at 37 °C, samples were quenched with 4 volumes of 90% (vol/vol) acetonitrile and 10% (vol/vol) methanol containing internal standard. Then, they were quantified using the AB Sciex API 4000 LC–MS/MS system (GenTech Scientific) with electrospray ionization in positive mode and multiple-reaction monitoring and were analysed using Analyst 1.6.1 software. The fold change value in 100% rhesus plasma was then calculated using the plasma/CCM ratio after correcting for the sample dilution factor and the percentage of free fraction in the matrix.

[2] = test system: SHIV envelope (Env) glycoprotein; assay: Env (gp140) ELISA seroconversion in challenged animals; assay type: in vivo, rhesus macaques; conditions: for First viremia to seroconversion interval / Seroconversion timepoint: individual infected animals
Experimental: Rhesus serum binding antibody titres against gp140 trimers were determined by ELISA. Ninety-six-well Maxisorp ELISA plates (Thermo Fisher Scientific) were coated overnight with 100 μl per well of 1 μg ml^−1 mosaic M gp140 protein in PBS and were then blocked for 2 h with blocker casein in PBS (Thermo Scientific). Macaque sera were added in threefold serial dilutions and were incubated for 1 h at room temperature. The plates were washed three times with PBS containing 0.05% Tween-20 and were then incubated for 1 h with a 1:1,000 dilution of a horseradish peroxidase (HRP)-conjugated goat anti-human secondary antibody (Jackson ImmunoResearch Laboratories). The plates were then washed three times with the above wash buffer and were developed using SureBlue tetramethylbenzidine (TMB) microwell peroxidase (KPL). Development was stopped by the addition of a stop solution (KPL), and the plates were then analysed at 450 nm with a Versamax ELISA microplate reader (Molecular Devices) using Softmax Pro 6.5.1 software. The ELISA endpoint titres were defined as the highest reciprocal serum dilution that yielded an OD450 nm absorbance of >0.2. Seroconversion occurred when the OD450 nm absorbance was greater than or equal to three times the value obtained at week 0 and the endpoint titre was greater than the assay LOD, which was 1:25.

[3] = test system: SHIV-SF162P3; assay: Repeated escalating-dose rectal SHIV challenge study (plasma viraemia by gag RT-qPCR); assay type: in vivo, rhesus macaques of Indian origin; conditions: for Proportion of animals protected: 15 weekly rectal challenges, follow-up to week 24; for First viremic timepoint: individual infected animals
Experimental: For the challenge study, 24 outbred rhesus macaques of Indian origin were assigned to the three study groups with even sex and weight distributions. All animals were housed at Alpha Genesis (Yemassee, SC), and all procedures were conducted in compliance with all relevant local, state and federal regulations and were approved by the Alpha Genesis IACUC. […] The injection sites were monitored daily by veterinary staff for 3 days. Beginning in week 1, animals in all three groups were challenged by the intrarectal route with 1 ml of RPMI containing the specified dilution of a 3.62 × 10^3 TCID50 SHIV-SF162P3 stock. At each respective time point, the challenges were performed on the same day, using the same virus stock and inoculation method across the three groups. Whole blood was collected and processed into plasma and PBMCs as necessary to assess routine haematology, clinical chemistry, viral load and serology as well as for bioanalysis of drug levels. The animals were considered to be protected if they remained SHIV negative by plasma PCR assay and seronegative by enzyme immunoassay throughout the 15-week challenge phase and the 9-week follow-up.
RNA was extracted from rhesus macaque plasma using a QIAcube high-throughput instrument and an IndiSpin QIAcube HT Pathogen kit (Qiagen). RNA standards using the SIV gag sequence were generated by AmpliCap-Max T7 High-Yield Message Maker kit (Cell Script) and were purified using an RNA Clean and Concentrator kit (Zymo Research). Log dilutions of the RNA were included with each RT–qPCR assay. Reverse transcription of standards and samples was performed using a Superscript III VILO kit (Invitrogen). qPCR was performed using forward primer 5′-[…]-3′, reverse primer 5′-[…]-3′ and fluorescently labelled primer 5′-[…]-3′ on a Quantstudio 6 Flex system (Applied Biosystems). The assay LOD was 200 copies gag per ml.
Protection against acquired infection was analysed using Cox proportional hazard regression models based on the exact partial likelihood for discrete time expressed in weeks, which explicitly accounts for the time-varying viral challenge dose in the model. The hazard ratios with 95% confidence intervals for per-exposure relative reductions in acquisition risk were calculated for the GS-CA1-treated groups, and the results were compared with those for the vehicle-treated control group. Comparisons were considered statistically significant at a two-sided alpha level of 0.05 (P < 0.05). Statistical analyses were performed using GraphPad Prism version 8.1.2, SAS version 9.4 and R Studio software version 4.0.5.

[4] = biological target: CA hexamer; conditions: ref Yant et al, Nat.Med, 2019;[4]; read-out: Binding Affinity (KD), CA hexamer; cited from earlier work
[5] = ref Yant et al, Nat.Med, 2019;[4]; cited from earlier work

## CC(C)(C#Cc1ccc(-c2ccc(Cl)c3c(NS(=O)(=O)C4CC4)nn(CC(F)F)c23)c([C@H](Cc2cc(F)cc(F)c2)NC(=O)Cn2nc(C(F)F)c3c2C(F)(F)[C@@H]2C[C@H]32)n1)S(C)(=O)=O [GS-CA1]
[1]
  recovery at 24 h, 2 μM: 60%
[2]; 150 mg/kg
  First viremia to seroconversion interval: 1 weeks and 4 weeks and 5 weeks
  Seroconversion timepoint: 17 study week and 20 study week and 18 study week and 16 study week and 19 study week and 21 study week
[2]; 300 mg/kg
  First viremia to seroconversion interval: 1 weeks and 3 weeks
  Seroconversion timepoint: 18 study week and 20 study week
[2]; all infected GS-CA1-treated animals, range 1 to 5 weeks
  median time to seroconversion from the onset of viraemia: 4 weeks
[3]; 150 mg/kg single s.c.
  Median weeks to viraemia (95% CI): 16 weeks and 16 (11, –) weeks
  study week until which no viraemia was detected in the group: 11 week
  Proportion of animals protected: 2/8
[3]; 150 mg/kg single s.c. vs vehicle
  per-exposure risk reduction: 87%
[3]; 150 mg/kg
  First viremic timepoint: 16 study week and 13 study week and 11 study week and 14 study week and 17 study week
[3]; 300 mg/kg single s.c.
  Median weeks to viraemia (95% CI): Not reached (17, –)
  study week until which no viraemia was detected in the group: 17 week
  Proportion of animals protected: 5/8
[3]; 300 mg/kg single s.c. vs vehicle
  per-exposure risk reduction: 97%
[3]; 300 mg/kg
  First viremic timepoint: 17 study week
[3]; 2 weeks before first detectable viraemia, nine infected treated animals
  average plasma GS-CA1 at estimated mucosal infection: 31.4 nM
[3]; 2 weeks before first detectable viraemia, range 0.4–1.6
  plasma GS-CA1 at estimated mucosal infection as multiple of rhesus paEC95: 1.0
[3]; GS-CA1 150mg/kg group, Week 1, individual animals
  Plasma SHIV viral load: 200 gag RNA copies per ml
[3]; GS-CA1 150mg/kg group, Week 2, individual animals
  Plasma SHIV viral load: 200 gag RNA copies per ml
[3]; GS-CA1 150mg/kg group, Week 3, individual animals
  Plasma SHIV viral load: 200 gag RNA copies per ml
[3]; GS-CA1 150mg/kg group, Week 4, individual animals
  Plasma SHIV viral load: 200 gag RNA copies per ml
[3]; GS-CA1 150mg/kg group, Week 5, individual animals
  Plasma SHIV viral load: 200 gag RNA copies per ml
[3]; GS-CA1 150mg/kg group, Week 6, individual animals
  Plasma SHIV viral load: 200 gag RNA copies per ml
[3]; GS-CA1 150mg/kg group, Week 7, individual animals
  Plasma SHIV viral load: 200 gag RNA copies per ml
[3]; GS-CA1 150mg/kg group, Week 8, individual animals
  Plasma SHIV viral load: 200 gag RNA copies per ml
[3]; GS-CA1 150mg/kg group, Week 9, individual animals
  Plasma SHIV viral load: 200 gag RNA copies per ml
[3]; GS-CA1 150mg/kg group, Week 10, individual animals
  Plasma SHIV viral load: 200 gag RNA copies per ml
[3]; GS-CA1 150mg/kg group, Week 11, individual animals, 150 mg/kg
  Plasma SHIV viral load: 200 gag RNA copies per ml and 2317 gag RNA copies per ml
[3]; GS-CA1 150mg/kg group, Week 12, individual animals, 150 mg/kg
  Plasma SHIV viral load: 200 gag RNA copies per ml and 1251253 gag RNA copies per ml
[3]; GS-CA1 150mg/kg group, Week 13, individual animals, 150 mg/kg
  Plasma SHIV viral load: 200 gag RNA copies per ml and 4495324 gag RNA copies per ml and 15543 gag RNA copies per ml
[3]; GS-CA1 150mg/kg group, Week 14, individual animals, 150 mg/kg
  Plasma SHIV viral load: 200 gag RNA copies per ml and 192698 gag RNA copies per ml and 302527 gag RNA copies per ml and 14481 gag RNA copies per ml
[3]; GS-CA1 150mg/kg group, Week 15, individual animals, 150 mg/kg
  Plasma SHIV viral load: 200 gag RNA copies per ml and 1636073 gag RNA copies per ml and 41252 gag RNA copies per ml and 436449 gag RNA copies per ml
[3]; GS-CA1 150mg/kg group, Week 16, individual animals, 150 mg/kg
  Plasma SHIV viral load: 43433 gag RNA copies per ml and 200 gag RNA copies per ml and 144532 gag RNA copies per ml and 37186 gag RNA copies per ml and 15508 gag RNA copies per ml and 62513 gag RNA copies per ml
[3]; GS-CA1 150mg/kg group, Week 17, individual animals, 150 mg/kg
  Plasma SHIV viral load: 28104 gag RNA copies per ml and 200 gag RNA copies per ml and 128422 gag RNA copies per ml and 4020 gag RNA copies per ml and 5872 gag RNA copies per ml and 1974 gag RNA copies per ml and 76901 gag RNA copies per ml
[3]; GS-CA1 150mg/kg group, Week 18, individual animals, 150 mg/kg
  Plasma SHIV viral load: 8535 gag RNA copies per ml and 200 gag RNA copies per ml and 144695 gag RNA copies per ml and 18625 gag RNA copies per ml and 13017 gag RNA copies per ml and 2250 gag RNA copies per ml and 14905 gag RNA copies per ml
[3]; GS-CA1 150mg/kg group, Week 19, individual animals, 150 mg/kg
  Plasma SHIV viral load: 2197 gag RNA copies per ml and 200 gag RNA copies per ml and 23783 gag RNA copies per ml and 733 gag RNA copies per ml and 4607 gag RNA copies per ml and 1586 gag RNA copies per ml and 872 gag RNA copies per ml
[3]; GS-CA1 150mg/kg group, Week 20, individual animals, 150 mg/kg
  Plasma SHIV viral load: 200 gag RNA copies per ml and 533 gag RNA copies per ml and 294 gag RNA copies per ml and 1229 gag RNA copies per ml
[3]; GS-CA1 150mg/kg group, Week 21, individual animals, 150 mg/kg
  Plasma SHIV viral load: 200 gag RNA copies per ml and 8674 gag RNA copies per ml and 2199 gag RNA copies per ml
[3]; GS-CA1 150mg/kg group, Week 22, individual animals, 150 mg/kg
  Plasma SHIV viral load: 200 gag RNA copies per ml and 2557 gag RNA copies per ml and 493 gag RNA copies per ml
[3]; GS-CA1 150mg/kg group, Week 23, individual animals, 150 mg/kg
  Plasma SHIV viral load: 200 gag RNA copies per ml and 1150 gag RNA copies per ml and 1806 gag RNA copies per ml and 218 gag RNA copies per ml
[3]; GS-CA1 150mg/kg group, Week 24, individual animals, 150 mg/kg
  Plasma SHIV viral load: 200 gag RNA copies per ml and 724 gag RNA copies per ml and 1367 gag RNA copies per ml
[3]; GS-CA1 300mg/kg group, Week 1, individual animals
  Plasma SHIV viral load: 200 gag RNA copies per ml
[3]; GS-CA1 300mg/kg group, Week 2, individual animals
  Plasma SHIV viral load: 200 gag RNA copies per ml
[3]; GS-CA1 300mg/kg group, Week 3, individual animals
  Plasma SHIV viral load: 200 gag RNA copies per ml
[3]; GS-CA1 300mg/kg group, Week 4, individual animals
  Plasma SHIV viral load: 200 gag RNA copies per ml
[3]; GS-CA1 300mg/kg group, Week 5, individual animals
  Plasma SHIV viral load: 200 gag RNA copies per ml
[3]; GS-CA1 300mg/kg group, Week 6, individual animals
  Plasma SHIV viral load: 200 gag RNA copies per ml
[3]; GS-CA1 300mg/kg group, Week 7, individual animals
  Plasma SHIV viral load: 200 gag RNA copies per ml
[3]; GS-CA1 300mg/kg group, Week 8, individual animals
  Plasma SHIV viral load: 200 gag RNA copies per ml
[3]; GS-CA1 300mg/kg group, Week 9, individual animals
  Plasma SHIV viral load: 200 gag RNA copies per ml
[3]; GS-CA1 300mg/kg group, Week 10, individual animals
  Plasma SHIV viral load: 200 gag RNA copies per ml
[3]; GS-CA1 300mg/kg group, Week 11, individual animals
  Plasma SHIV viral load: 200 gag RNA copies per ml
[3]; GS-CA1 300mg/kg group, Week 12, individual animals
  Plasma SHIV viral load: 200 gag RNA copies per ml
[3]; GS-CA1 300mg/kg group, Week 13, individual animals
  Plasma SHIV viral load: 200 gag RNA copies per ml
[3]; GS-CA1 300mg/kg group, Week 14, individual animals
  Plasma SHIV viral load: 200 gag RNA copies per ml
[3]; GS-CA1 300mg/kg group, Week 15, individual animals
  Plasma SHIV viral load: 200 gag RNA copies per ml
[3]; GS-CA1 300mg/kg group, Week 16, individual animals
  Plasma SHIV viral load: 200 gag RNA copies per ml
[3]; GS-CA1 300mg/kg group, Week 17, individual animals, 300 mg/kg
  Plasma SHIV viral load: 9063 gag RNA copies per ml and 13193 gag RNA copies per ml and 200 gag RNA copies per ml and 13143 gag RNA copies per ml
[3]; GS-CA1 300mg/kg group, Week 18, individual animals, 300 mg/kg
  Plasma SHIV viral load: 200 gag RNA copies per ml and 6116 gag RNA copies per ml and 1633235 gag RNA copies per ml
[3]; GS-CA1 300mg/kg group, Week 19, individual animals, 300 mg/kg
  Plasma SHIV viral load: 200 gag RNA copies per ml and 123639 gag RNA copies per ml
[3]; GS-CA1 300mg/kg group, Week 20, individual animals, 300 mg/kg
  Plasma SHIV viral load: 200 gag RNA copies per ml and 17958 gag RNA copies per ml
[3]; GS-CA1 300mg/kg group, Week 21, individual animals, 300 mg/kg
  Plasma SHIV viral load: 200 gag RNA copies per ml
[3]; GS-CA1 300mg/kg group, Week 22, individual animals, 300 mg/kg
  Plasma SHIV viral load: 200 gag RNA copies per ml
[3]; GS-CA1 300mg/kg group, Week 23, individual animals, 300 mg/kg
  Plasma SHIV viral load: 200 gag RNA copies per ml
[3]; GS-CA1 300mg/kg group, Week 24, individual animals, 300 mg/kg
  Plasma SHIV viral load: 200 gag RNA copies per ml
[3]; infected GS-CA1-treated animals
  peak viral loads vs vehicle-treated control animals: significantly lower
[4]
  Kd: 0.38 nM
[5]
  T1/2, human cryopreserved hepatocytes: 130 h
